How the values were obtained:
Pooled human plasma = assay: In vitro anticoagulant effect in human plasma (aPTT, EC1.5x); type: biochemical; settings: 37 °C for 10 minutes
Experimental: aPTT (Lot 220106600), Calcium Chloride (Lot 210305600), Needle Rinse Solution (Lot 211101300): produced by Shenzhen Mindray Bio-Medical Electronics Co., Ltd. Pooled human plasma: collected from healthy individuals using disposable venous blood collection tubes (Liuyang Sanli Medical Technology Development Co., Ltd., Lot 211108, sodium citrate 9:1). Blood was collected, centrifuged at room temperature at 3000 rpm for 10 minutes, and the supernatant was collected and stored for use (Lot 20220606).
Test compounds dissolved in 100% DMSO at 10 mM were diluted with 100% DMSO to concentrations of 0.29 µM, 0.59 µM, 1.17 µM, 2.34 µM, 4.69 µM, 9.38 µM, 18.75 µM, and 37.50 µM. Then 99 µL of pooled human plasma was added to each 1.5 mL centrifuge tube, followed by the addition of 1 µL of compound at different concentrations; 1 µL of DMSO was added to the blank control. The tubes were mixed by repeated manual inversion, centrifuged briefly using a mini centrifuge to collect the samples, and then incubated in a thermostatic water bath at 37 °C for 10 minutes with mixing. The aPTT was measured using a fully automated coagulation analyzer according to the preset program.
Curve fitting was performed using GraphPad Prism software to calculate EC1.5x.

Human Factor XIa = Human Factor XIa (Homo sapiens, UniProt P03951); assay: Inhibition of human coagulation Factor XIa by absorbance method (S-2366 substrate, 405 nm); type: biochemical; settings: incubated at 37 °C for 20 minutes; substrate 800 µM; read-out: Recombinant Enzyme FXIa IC50
Experimental: • Enzyme: Human Factor XIa (ENZYME […], Cat. No. HFXIa 1111a) • Substrate: S-2366™ (CHROMOGENIX, Cat. No. 82109039) • Buffer: 145 mM NaCl, 5 mM KCl, 1 mg/mL PEG 8000, 30 mM HEPES, pH 7.4.
Test compounds dissolved in 100% DMSO at 10 mM were diluted with 100% DMSO to concentrations of 1000 µM, 200 µM, 40 µM, 8 µM, 1.6 µM, 0.32 µM, 0.064 µM, 0.0128 µM, 0.00256 µM, and […]. Then 98 µL of FXIa enzyme solution (77.7 ng/mL) was added to each well of a 96-well plate, with 98 µL of buffer added to blank wells instead. Then, 2 µL of compound at different concentrations was added; DMSO was used instead for blank and control wells. The plate was mixed using a plate shaker and incubated at 37 °C for 20 minutes.
Finally, 100 µL of substrate (800 µM) was added to each well, and the absorbance was measured at 405 nm.
Curve fitting was performed using GraphPad Prism software to calculate the IC50 values.

[1] = Pharmacokinetic experiment in rats (iv and PO); settings: male, Sprague-Dawley (SD), rat, plasma, 5 mg/kg
From the text: Polyethylene glycol 400 (PEG-400, Lot GORKREUT, Shaen Chemical Technology (Shanghai) Co., Ltd.), DMSO (Lot 20200319, Guangdong Guanghua Sci-Tech Co., Ltd.), normal saline (Lot C20052604, Jiangxi Kelun Pharmaceutical Co., Ltd.). LC-MS instrument (Thermo Fisher Ultimate 3000 UPLC, TSQ QUANTUM ULTRA triple quadrupole mass spectrometer, AB SCIEX 5500 QTARP).
SD rats: Male, 180-250 g, purchased from Guangdong Vital River Laboratory Animal Technology Co., Ltd.
The test compound powder was accurately weighed, completely dissolved in DMSO, then PEG-400 was added. The mixture was vortexed and sonicated to mix, followed by the addition of normal saline. The mixture was vortexed and sonicated again to achieve a final concentration of 0.5 mg/mL (DMSO:PEG-400:NS = 5:60:35, V/V/V). The dosing volume was 10 mL/kg for oral gavage and 0.5 mL/kg for intravenous administration.
After intravenous or oral administration to rats, 200 µL of venous blood was collected at 5 min (not collected for oral group), 15 min, 30 min, 1 h, 2 h, 5 h, 7 h, and 24 h into heparinized EP tubes. The blood was centrifuged at 12,000 rpm for 2 minutes, and the plasma was collected and stored at -80 °C until analysis.
A precise amount of the test compound was weighed and dissolved in DMSO to 1 mg/mL as a stock solution. An appropriate volume of the compound stock solution was accurately pipetted and diluted with acetonitrile to prepare standard series solutions. 20 µL of each standard series solution was accurately pipetted and added to 180 µL of blank plasma, vortexed to mix, to prepare plasma samples equivalent to plasma concentrations of 1 ng/mL, 3 ng/mL, 10 ng/mL, 30 ng/mL, 100 ng/mL, 300 ng/mL, 1000 ng/mL, 3000 ng/mL, and 5000 ng/mL. Each concentration was analyzed in duplicate to establish the standard curve. 20 µL of plasma sample was taken, and 200 µL of an internal standard (propranolol, 5 ng/mL) in acetonitrile solution was added. The mixture was vortexed and centrifuged at 4000 rpm for 5 minutes. The supernatant was taken for LC-MS analysis. The LC-MS detection conditions were as follows: Chromatographic Column: Waters ACQUITY™ PREMIER HSS T3, 50*2.1 mm, 1.8 µm.
Mobile phase A: water (0.1% formic acid), mobile phase B: acetonitrile, flow rate: 0.5 mL/min, gradient elution: see Table 2 below.
After determining the plasma drug concentration by LC-MS, the pharmacokinetic parameters following administration to rats were calculated using the non-compartmental model in WinNonlin 6.1 software.

Sequence of Human Factor XIa (P03951 388-625 limits assumed): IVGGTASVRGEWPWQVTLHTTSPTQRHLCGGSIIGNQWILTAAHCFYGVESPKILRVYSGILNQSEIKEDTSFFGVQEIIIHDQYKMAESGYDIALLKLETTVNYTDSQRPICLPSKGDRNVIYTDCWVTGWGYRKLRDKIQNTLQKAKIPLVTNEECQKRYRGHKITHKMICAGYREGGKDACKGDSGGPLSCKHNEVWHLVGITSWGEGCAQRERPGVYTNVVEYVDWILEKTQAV
Sequence of Human Factor XIa (P03951 19-387 partner limits assumed): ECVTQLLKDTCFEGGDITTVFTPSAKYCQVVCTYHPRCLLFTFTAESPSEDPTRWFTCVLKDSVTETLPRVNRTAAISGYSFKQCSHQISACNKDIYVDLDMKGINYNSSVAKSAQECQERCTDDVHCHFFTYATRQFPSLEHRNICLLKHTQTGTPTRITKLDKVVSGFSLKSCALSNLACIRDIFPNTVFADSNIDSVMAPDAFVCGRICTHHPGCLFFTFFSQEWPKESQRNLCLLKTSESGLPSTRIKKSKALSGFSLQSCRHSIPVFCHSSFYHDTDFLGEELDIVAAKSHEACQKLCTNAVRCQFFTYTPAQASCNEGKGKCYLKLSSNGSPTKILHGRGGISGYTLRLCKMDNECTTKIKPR

SMILES | IC50 (Human Factor XIa) [nM] | bioavailability [1] [%] | Human Plasma APTT 1.5x (Pooled human plasma) [µM]
C[C@@H]1CCC[C@H](n2cnc(-c3cc(Cl)ccc3-n3cc(Cl)nn3)cc2=O)c2cc(cc(F)c2F)-c2c(cnn2C(F)F)NC1=O [Compound 14, (3S,7R)-3-(4-(5-chloro-2-(4-chloro-1H-1,2,3-triazol-1-yl)phenyl)-6-oxopyrimidin-1(6H)-yl)-2^4,2^5-difluoro-7-methyl-1^1-difluoromethyl-1^1H-9-aza-1(5,4)-pyrazol a-2(1,3)-benzenacyclononaphan-8-one] | 0.38 | – | –
[2H]C([2H])([2H])n1ncc2c1-c1cc(F)c(F)c(c1)[C@@H](n1cnc(-c3c(-n4cc(Cl)nn4)ccc(Cl)c3F)cc1=O)CCC[C@@H](C)C(=O)N2 [Compound 3, (3S,7R)-3-(4-(3-chloro-6-(4-chloro-1H-1,2,3-triazol-1-yl)-2-fluorophenyl)-6-oxopyrimidin-1(6H)-yl)-2^4,2^5-difluoro-7-methyl-1^1-(methyl-d3)-1^1H-9-aza-1(5,4)-pyrazola-2(1,3)-benzenacyclononaphan-8-one] | 0.61 | 15.7 | 0.24
[2H]C([2H])([2H])n1ncc2c1-c1cc(F)c(F)c(c1)[C@@H](n1ccc(-c3cc(Cl)ccc3-n3cc(C(F)F)nn3)cc1=O)CCC[C@@H](C)C(=O)N2 [Compound 10, (3S,7R)-3-(4-(5-chloro-2-(4-(difluoromethyl)-1H-1,2,3-triazol-1-yl)phenyl)-2-oxopyridin-1(2H)-yl)-2^4,2^5-difluoro-7-methyl-1^1-(methyl-d3)-1^1H-9-aza-1(5,4)-pyrazola-2(1,3)-benzenacyclononaphan-8-one] | 0.77 | – | 0.20
C[C@@H]1CCC[C@H](n2cnc(-c3c(-n4cc(Cl)nn4)ccc(Cl)c3F)cc2=O)c2cc(cc(F)c2F)-c2c(cnn2C(F)F)NC1=O [Compound 13, (3S,7R)-3-(4-(3-chloro-6-(4-chloro-1H-1,2,3-triazol-1-yl)-2-fluorophenyl)-6-oxopyrimidin-1(6H)-yl)-2^4,2^5-difluoro-7-methyl-1^1-difluoromethyl-1^1H-9-aza-1(5,4)-pyraz ola-2(1,3)-benzenacyclononaphan-8-one] | 0.4 | – | –
[2H]C([2H])([2H])n1ncc2c1-c1cc(F)c(F)c(c1)[C@@H](n1ncc(-c3c(-n4cc(C(F)(F)F)nn4)ccc(Cl)c3F)c(Cl)c1=O)CCC[C@@H](C)C(=O)N2 [Compound 6, (3S,7R)-3-(5-chloro-4-(3-chloro-2-fluoro-6-(4-(trifluoromethyl)-1H-1,2,3-triazol-1-yl)phenyl)-6-oxopyridazin-1(6H)-yl)-2^42^5-difluoro-7-methyl-1^1-(methyl-d3)-1^1H-9-aza-1(5,4)-pyrazola-2(1,3)-benzenacyclononaphan-8-one] | 1.06 | 14.1 | 0.43
[2H]C([2H])([2H])n1ncc2c1-c1cc(F)c(F)c(c1)[C@@H](n1ncc(-c3cc(Cl)ccc3-n3cc(C(F)(F)F)nn3)cc1=O)CCC[C@@H](C)C(=O)N2 [Compound 5, (3S,7R)-3-(4-(5-chloro-2-(4-(trifluoromethyl)-1H-1,2,3-triazol-1-yl)phenyl) -6-oxopyridazin-1(6H)-yl)-2^4,2^5-difluoro-7-methyl-1^1-(methyl-d3)-1^1H-9-aza-1(5,4)-pyrazola-2(1,3)-benzenacyclononaphan-8-one] | 0.89 | – | 0.83

The next compounds have a lower IC50 (Human Factor XIa) than those just listed; values first:

IC50 (Human Factor XIa) [nM] | bioavailability [1] [%] | SMILES | Human Plasma APTT 1.5x (Pooled human plasma) [µM]
0.36 | – | [2H]C([2H])([2H])n1ncc2c1-c1cc(F)c(F)c(c1)[C@@H](n1cnc(-c3cc(Cl)ccc3-n3cc(C(F)(F)F)nn3)cc1=O)CCC[C@@H](C)C(=O)N2 [Compound 2, (3R,7R)-3-(4-(5-chloro-2-(4-(trifluoromethyl)-1H-1,2,3-triazol-1-yl)phenyl) -6-oxopyrimidin-1(6H)-yl)-2^42^5-difluoro-7-methyl-1^1-(methyl-d3)-1^1H-9-aza-1(5,4)-pyrazola-2(1,3)-benzenacyclononaphan-8-one] | 0.24
0.34 | – | [2H]C([2H])([2H])n1ncc2c1-c1cc(F)c(F)c(c1)[C@@H](n1ccc(-c3cc(Cl)ccc3-n3cc(C(F)(F)F)nn3)cc1=O)CCC[C@@H](C)C(=O)N2 [Compound 7, (3S,7R)-3-(4-(5-chloro-2-(4-(trifluoromethyl)-1H-1,2,3-triazol-1-yl)phenyl) -2-oxopyridin-1(2H)-yl)-2^4,2^5-difluoro-7-methyl-1^1-(methyl-d3)-1^1H-9-aza-1(5,4)-pyrazola-2 (1,3)-benzenacyclononaphan-8-one] | 0.22
0.3 | – | [2H]C([2H])([2H])n1ncc2c1-c1cc(F)c(F)c(c1)[C@@H](n1ccc(-c3cc(Cl)ccc3-n3cc(C(F)(F)F)nn3)c(F)c1=O)CCC[C@@H](C)C(=O)N2 [Compound 9, (3S,7R)-3-(4-(5-chloro-2-(4-(trifluoromethyl)-1H-1,2,3-triazol-1-yl)phenyl)-3-fluoro-2-oxopyridin-1(2H)-yl)-2^4,2^5-difluoro-7-methyl-1^1-(methyl-d3)-1^1H-9-aza-1 (5,4)-pyrazola-2(1,3)-benzenacyclononaphan-8-one] | –
0.29 | 21.6 | C[C@@H]1CCC[C@H](n2cnc(-c3c(-n4cc(C(F)(F)F)nn4)ccc(Cl)c3F)cc2=O)c2cc(cc(F)c2F)-c2c(cnn2C(F)F)NC1=O [Compound 11, (3S,7R)-3-(4-(3-chloro-2-fluoro-6-(4-(trifluoromethyl)-1H-1,2,3-triazol-1-yl)phenyl)-6-oxopyrimidin-1(6H)-yl)-2^4,2^5-difluoro-7-methyl-1^1-difluoromethyl-1^1H-9-aza-1 (5,4)-pyrazola-2(1,3)-benzenacyclononaphan-8-one] | 0.23
0.15 | – | [2H]C([2H])([2H])n1ncc2c1-c1cc(F)c(F)c(c1)[C@@H](n1ccc(-c3cc(Cl)ccc3-n3cc(C(F)(F)F)nn3)c(Cl)c1=O)CCC[C@@H](C)C(=O)N2 [Compound 8, (3S,7R)-3-(4-(5-chloro-2-(4-(trifluoromethyl)-1H-1,2,3-triazol-1-yl)phenyl) -3-chloro-2-oxopyridin-1(2H)-yl)-2^4,2^5-difluoro-7-methyl-1^1-(methyl-d3)-1^1H-9-aza-1(5,4)-p yrazola-2(1,3)-benzenacyclononaphan-8-one] | –

Source: EP4737457A1, “POLYSUBSTITUTED MACROCYCLIC COMPOUND, AND PREPARATION METHOD THEREFOR AND USE THEREOF” (Shenzhen Salubris Pharmaceuticals Co., Ltd., priority 2023, dated 2025)
